The values that follow are results of earlier work, collected in patent publication US8109064B2, “Methods and systems for contact lens sterilization” (Menicon Signapore Pte Ltd., priority 2006, dated 2012).

For the data set the following is noted: in vivo.

Regarding polyhexamine biguanide [PHMB], the corneal staining entry is listed as “implicated in corneal staining”.
